Measured values reported in ChEMBL document CHEMBL5370650, “Discovery of Clinical Candidate NT-0796, a Brain-Penetrant and Highly Potent NLRP3 Inflammasome Inhibitor for Neuroinflammatory Disorders” (J Med Chem, 2023).
In brackets after ≈: the same amount, converted by molar mass. Values belong to the compound of their own block, whether it stands above or below them. Activity calls are given as the source filed them. The calls are words filed in the database; no cut-off is given here.

Columns and labels:
[1] = Permeability of compound at pH 7.4 incubated for 4 hrs by […] based PAMPA assay; assay type: ADME; conditions: read-out: permeability
[2] = Kinetic solubility of compound in PBS at pH7.4 at 1 to 200 uM incubated for 24 hrs by LC-UV analysis; assay type: physicochemical; conditions: pH 7.4, dose 1-200 µM, read-out: Kinetic_solubility
Cytochrome P450 1A2 = target: T1, Cytochrome P450 1A2 (Homo sapiens, UniProt P05177); assay: Reversible inhibition of CYP1A2 in human liver microsomes in presence of NADPH by LC-MS/MS analysis; assay type: ADME, Microsome
T1 sequence (P05177 whole entry): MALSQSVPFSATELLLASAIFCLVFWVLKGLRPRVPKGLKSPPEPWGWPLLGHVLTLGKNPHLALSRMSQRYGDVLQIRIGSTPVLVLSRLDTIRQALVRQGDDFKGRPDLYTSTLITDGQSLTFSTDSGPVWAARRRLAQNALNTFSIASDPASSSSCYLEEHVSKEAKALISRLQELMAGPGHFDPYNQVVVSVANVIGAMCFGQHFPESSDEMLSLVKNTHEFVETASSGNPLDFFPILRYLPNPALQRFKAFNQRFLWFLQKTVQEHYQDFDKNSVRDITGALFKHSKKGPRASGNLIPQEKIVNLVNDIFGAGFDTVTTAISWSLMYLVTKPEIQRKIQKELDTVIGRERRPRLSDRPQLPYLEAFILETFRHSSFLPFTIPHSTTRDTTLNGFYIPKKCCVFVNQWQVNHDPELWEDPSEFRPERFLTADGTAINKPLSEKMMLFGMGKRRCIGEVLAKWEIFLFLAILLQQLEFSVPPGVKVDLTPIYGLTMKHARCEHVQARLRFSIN

[3] = Inhibition of LPS-induced IL-6 secretion in human PBMC cells incubated for 4 hrs by ELISA
[4] = Inhibition of LPS-induced TNFalpha secretion in human PBMC cells incubated for 4 hrs by ELISA
Cytochrome P450 3A4 [5] = target: T2, Cytochrome P450 3A4 (Homo sapiens, UniProt P08684); assay: Reversible inhibition of CYP3A4 in human liver microsomes using nifedipine as substrate incubated for 5 mins in presence of NADPH by LC-MS/MS analysis; assay type: ADME, Microsome
HepG2 = assay: Induction of phospholipidosis in human HepG2 cells assessed as increase in phospholipids within lysosome by high content screening analysis; assay type: toxicity, cell-based
[6] = Induction of steatosis in human HepG2 cells assessed as accumulation of triglycerides in cytoplasm by high content screening analysis; assay type: toxicity, cell-based
Cytochrome P450 2D6 = Cytochrome P450 2D6 (Homo sapiens, UniProt P10635); assay: Reversible inhibition of CYP2D6 in human liver microsomes in presence of NADPH by LC-MS/MS analysis; assay type: ADME, Microsome
[7] = Phototoxicity in mouse BALB/3T3 clone A31 cells incubated under dark condition for 1 hr followed by 2.5 J/cm2 UVA light irradiation for 18 mins by neutral red dye based assay; assay type: toxicity, cell-based; conditions: balb/3t3 clone a31, 1.3 h, time 78 min
[8] = Drug concentration in C57BL/6J mouse brain at 3 mg/kg, iv measured after 5 mins by LC-MS/MS analysis; assay type: ADME, organism-based; conditions: read-out: Ct
[9] = Ratio of drug concentration in C57BL/6J mouse brain to blood at 3 mg/kg, iv measured after 5 mins by LC-MS/MS analysis; assay type: ADME, organism-based; conditions: read-out: BBR
Cytochrome P450 3A4 [10] = target: T2, Cytochrome P450 3A4; assay: Reversible inhibition of CYP3A4 in human liver microsomes using midazolam as substrate in presence of NADPH by LC-MS/MS analysis; assay type: ADME, Microsome
[11] = Drug concentration in C57BL/6J mouse blood at 3 mg/kg, iv measured after 5 mins by LC-MS/MS analysis; assay type: ADME, organism-based; conditions: read-out: Ct
Cytochrome P450 2C9 = Cytochrome P450 2C9 (Homo sapiens, UniProt P11712); assay: Reversible inhibition of CYP2C9 in human liver microsomes in presence of NADPH by LC-MS/MS analysis; assay type: ADME, Microsome
[12] = target: Voltage-gated inwardly rectifying potassium channel KCNH2 (Homo sapiens, UniProt Q12809); assay: Inhibition of hERG transfected in CHO cells at -80 mV holding potential by Whole-cell patch clamp assay; assay type: toxicity, cell-based
Cytochrome P450 2C8 = target: T3, Cytochrome P450 2C8 (Homo sapiens, UniProt P10632); assay: Reversible inhibition of CYP2C8 in human liver microsomes in presence of NADPH by LC-MS/MS analysis; assay type: ADME, Microsome
T3 sequence (P10632 whole entry): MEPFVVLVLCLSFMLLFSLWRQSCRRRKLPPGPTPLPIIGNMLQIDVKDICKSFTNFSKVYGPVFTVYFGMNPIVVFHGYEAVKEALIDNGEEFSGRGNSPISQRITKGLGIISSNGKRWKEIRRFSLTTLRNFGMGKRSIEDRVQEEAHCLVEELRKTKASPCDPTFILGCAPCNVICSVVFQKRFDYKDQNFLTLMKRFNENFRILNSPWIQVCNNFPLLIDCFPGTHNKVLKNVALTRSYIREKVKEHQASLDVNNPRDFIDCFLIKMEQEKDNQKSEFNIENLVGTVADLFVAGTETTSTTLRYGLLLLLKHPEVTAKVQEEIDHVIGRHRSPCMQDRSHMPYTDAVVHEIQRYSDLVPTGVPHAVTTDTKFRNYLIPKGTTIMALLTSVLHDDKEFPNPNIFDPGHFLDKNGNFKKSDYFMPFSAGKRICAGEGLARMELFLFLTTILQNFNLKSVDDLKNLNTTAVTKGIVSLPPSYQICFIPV

NLRC4 (Homo sapiens) = assay: Inhibition of NLRC4 inflammasome activation in human PBMC assessed as reduction in IL-1beta secretion at 3 nM preincubated with LPS for 2.5 hrs followed by compound addition for 30 mins by ELISA
[13] = Mutagenicity in Salmonella typhimurium by Ames test; assay type: toxicity; conditions: salmonella enterica subsp. enterica serovar typhimurium
Cytochrome P450 2B6 = target: T4, Cytochrome P450 2B6 (Homo sapiens, UniProt P20813); assay: Reversible inhibition of CYP2B6 in human liver microsomes in presence of NADPH by LC-MS/MS analysis; assay type: ADME, Microsome
T4 sequence (P20813 whole entry): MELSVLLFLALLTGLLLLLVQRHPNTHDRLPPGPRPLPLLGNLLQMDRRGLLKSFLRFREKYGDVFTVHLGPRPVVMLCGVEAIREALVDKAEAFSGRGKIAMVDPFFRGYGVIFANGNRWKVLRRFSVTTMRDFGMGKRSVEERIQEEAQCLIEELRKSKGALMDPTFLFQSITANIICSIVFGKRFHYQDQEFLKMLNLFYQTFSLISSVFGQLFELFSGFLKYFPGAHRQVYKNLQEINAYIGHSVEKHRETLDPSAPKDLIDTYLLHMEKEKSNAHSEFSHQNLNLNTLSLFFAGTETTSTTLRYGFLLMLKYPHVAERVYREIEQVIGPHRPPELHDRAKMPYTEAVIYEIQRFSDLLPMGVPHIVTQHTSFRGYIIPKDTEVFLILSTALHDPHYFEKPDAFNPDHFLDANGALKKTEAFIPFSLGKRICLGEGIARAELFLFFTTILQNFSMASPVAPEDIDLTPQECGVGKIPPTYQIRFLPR

Cytochrome P450 2C19 = Cytochrome P450 2C19 (Homo sapiens, UniProt P33261); assay: Reversible inhibition of CYP2C19 in human liver microsomes using S-mephenytoin as substrate incubated for 20 mins in presence of NADPH by LC-MS/MS analysis; assay type: ADME, Microsome
[14] = target: 5-hydroxytryptamine receptor 2B (Homo sapiens) (UniProt P41595); assay: Antagonist activity at 5HT2B (unknown origin) at 10 uM by Eurofins-CEREP panel assay relative to control; assay type: functional; parameters: scale not given: the % may be the effect or the level left; conditions: filed as antagonist
[15] = target: T5, NACHT, LRR and PYD domains-containing protein 3 (Homo sapiens, UniProt Q96P20); assay: Inhibition of NLRP3 inflammasome activation in human whole blood assessed as inhibition of LPS/ATP induced IL-1beta secretion preincubated with LPS for 3 hrs followed by compound addition for 30 mins and further stimulated with ATP for 60 mins by ELISA; assay type: tissue-based
[16] = target: T5, NACHT, LRR and PYD domains-containing protein 3; assay: Inhibition of NLRP3 inflammasome activation in LPS-activated human PBMC cells assessed as inhibition of ATP/nigericin induced IL-1beta secretion preincubated with LPS for 3 hrs followed by compound addition for 30 mins and further stimulated with ATP for 1 hr by ELISA; assay type: cell-based

Chain of Cytochrome P450 2C19 (P33261 whole entry): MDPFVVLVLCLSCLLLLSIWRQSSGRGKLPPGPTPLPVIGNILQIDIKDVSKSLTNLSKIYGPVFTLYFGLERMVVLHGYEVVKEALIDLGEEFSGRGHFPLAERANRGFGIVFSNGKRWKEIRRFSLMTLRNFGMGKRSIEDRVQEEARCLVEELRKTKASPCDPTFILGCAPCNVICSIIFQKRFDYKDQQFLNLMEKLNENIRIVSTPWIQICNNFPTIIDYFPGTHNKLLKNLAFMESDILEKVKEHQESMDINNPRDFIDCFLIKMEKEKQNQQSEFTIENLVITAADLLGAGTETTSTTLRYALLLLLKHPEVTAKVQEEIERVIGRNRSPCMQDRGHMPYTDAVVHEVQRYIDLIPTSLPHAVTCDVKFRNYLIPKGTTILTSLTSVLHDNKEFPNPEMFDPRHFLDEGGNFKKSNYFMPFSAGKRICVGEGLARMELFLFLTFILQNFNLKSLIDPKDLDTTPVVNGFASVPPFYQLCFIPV
T2 sequence (P08684 whole entry): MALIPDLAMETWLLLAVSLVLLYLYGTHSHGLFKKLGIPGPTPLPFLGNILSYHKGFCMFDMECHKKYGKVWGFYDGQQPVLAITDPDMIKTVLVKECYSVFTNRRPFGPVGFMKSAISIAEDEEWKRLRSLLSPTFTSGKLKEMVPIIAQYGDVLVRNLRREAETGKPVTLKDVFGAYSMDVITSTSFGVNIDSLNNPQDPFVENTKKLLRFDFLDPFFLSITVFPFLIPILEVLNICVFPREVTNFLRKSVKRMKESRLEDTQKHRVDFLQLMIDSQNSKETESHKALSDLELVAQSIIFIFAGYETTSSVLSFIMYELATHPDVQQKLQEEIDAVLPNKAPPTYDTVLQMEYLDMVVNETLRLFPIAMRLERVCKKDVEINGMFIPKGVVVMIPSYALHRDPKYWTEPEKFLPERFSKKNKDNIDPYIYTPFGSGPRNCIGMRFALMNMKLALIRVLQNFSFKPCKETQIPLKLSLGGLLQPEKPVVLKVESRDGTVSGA
T5 sequence (Q96P20 whole entry, the tested form may be a part): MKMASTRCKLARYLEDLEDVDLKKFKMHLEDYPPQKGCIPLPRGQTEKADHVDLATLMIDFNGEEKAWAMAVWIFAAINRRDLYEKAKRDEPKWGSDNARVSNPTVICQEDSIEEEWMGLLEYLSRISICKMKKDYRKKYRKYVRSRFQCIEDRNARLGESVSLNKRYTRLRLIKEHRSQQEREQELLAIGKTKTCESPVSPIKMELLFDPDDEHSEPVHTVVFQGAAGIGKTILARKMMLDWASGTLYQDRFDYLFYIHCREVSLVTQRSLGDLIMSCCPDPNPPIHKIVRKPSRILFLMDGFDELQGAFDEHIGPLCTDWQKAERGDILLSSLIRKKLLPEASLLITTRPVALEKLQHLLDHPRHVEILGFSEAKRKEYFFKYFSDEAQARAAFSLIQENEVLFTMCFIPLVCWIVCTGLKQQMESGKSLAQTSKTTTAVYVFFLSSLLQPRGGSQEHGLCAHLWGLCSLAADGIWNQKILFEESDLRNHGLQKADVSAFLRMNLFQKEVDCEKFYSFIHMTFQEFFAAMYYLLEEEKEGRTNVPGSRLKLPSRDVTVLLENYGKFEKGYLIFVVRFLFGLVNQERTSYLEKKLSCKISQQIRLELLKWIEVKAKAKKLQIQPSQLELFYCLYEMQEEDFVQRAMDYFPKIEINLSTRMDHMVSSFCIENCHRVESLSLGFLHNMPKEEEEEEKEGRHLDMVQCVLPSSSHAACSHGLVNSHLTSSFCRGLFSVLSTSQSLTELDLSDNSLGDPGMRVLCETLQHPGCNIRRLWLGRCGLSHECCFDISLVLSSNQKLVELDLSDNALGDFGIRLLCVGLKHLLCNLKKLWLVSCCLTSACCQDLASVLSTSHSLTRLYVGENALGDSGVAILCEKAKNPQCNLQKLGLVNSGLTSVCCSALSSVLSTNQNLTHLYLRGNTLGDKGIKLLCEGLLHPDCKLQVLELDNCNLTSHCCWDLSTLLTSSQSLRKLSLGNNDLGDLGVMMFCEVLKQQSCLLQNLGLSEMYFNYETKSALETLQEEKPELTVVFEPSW
Chain of Cytochrome P450 2C9 (P11712 whole entry): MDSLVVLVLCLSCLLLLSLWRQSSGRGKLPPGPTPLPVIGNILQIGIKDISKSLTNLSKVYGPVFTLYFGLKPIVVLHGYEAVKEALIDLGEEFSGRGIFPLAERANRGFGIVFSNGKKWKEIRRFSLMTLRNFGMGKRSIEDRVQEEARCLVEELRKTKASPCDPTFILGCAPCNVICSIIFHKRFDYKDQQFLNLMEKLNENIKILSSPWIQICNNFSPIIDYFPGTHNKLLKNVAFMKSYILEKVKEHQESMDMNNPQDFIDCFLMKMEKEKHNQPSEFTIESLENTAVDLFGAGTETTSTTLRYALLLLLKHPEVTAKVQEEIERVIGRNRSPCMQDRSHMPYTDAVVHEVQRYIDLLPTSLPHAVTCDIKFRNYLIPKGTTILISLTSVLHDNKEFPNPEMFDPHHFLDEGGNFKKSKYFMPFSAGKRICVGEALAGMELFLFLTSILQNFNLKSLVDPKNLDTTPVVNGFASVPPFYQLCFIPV
Chain of Cytochrome P450 2D6 (P10635 whole entry): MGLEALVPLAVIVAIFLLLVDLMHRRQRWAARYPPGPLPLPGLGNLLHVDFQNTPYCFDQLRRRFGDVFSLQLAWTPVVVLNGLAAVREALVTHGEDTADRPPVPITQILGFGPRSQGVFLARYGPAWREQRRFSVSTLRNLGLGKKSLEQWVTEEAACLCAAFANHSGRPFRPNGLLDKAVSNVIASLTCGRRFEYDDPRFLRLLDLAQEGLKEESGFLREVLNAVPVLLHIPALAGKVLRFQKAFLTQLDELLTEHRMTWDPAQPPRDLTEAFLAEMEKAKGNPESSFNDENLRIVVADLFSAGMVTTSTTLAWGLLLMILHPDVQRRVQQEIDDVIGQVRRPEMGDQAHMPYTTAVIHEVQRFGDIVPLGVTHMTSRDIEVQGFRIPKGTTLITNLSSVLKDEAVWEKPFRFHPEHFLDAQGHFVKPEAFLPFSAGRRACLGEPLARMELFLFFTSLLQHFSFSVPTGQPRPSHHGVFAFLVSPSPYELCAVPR
Chain of 5-hydroxytryptamine receptor 2B (Homo sapiens) (P41595 whole entry, the tested form may be a part): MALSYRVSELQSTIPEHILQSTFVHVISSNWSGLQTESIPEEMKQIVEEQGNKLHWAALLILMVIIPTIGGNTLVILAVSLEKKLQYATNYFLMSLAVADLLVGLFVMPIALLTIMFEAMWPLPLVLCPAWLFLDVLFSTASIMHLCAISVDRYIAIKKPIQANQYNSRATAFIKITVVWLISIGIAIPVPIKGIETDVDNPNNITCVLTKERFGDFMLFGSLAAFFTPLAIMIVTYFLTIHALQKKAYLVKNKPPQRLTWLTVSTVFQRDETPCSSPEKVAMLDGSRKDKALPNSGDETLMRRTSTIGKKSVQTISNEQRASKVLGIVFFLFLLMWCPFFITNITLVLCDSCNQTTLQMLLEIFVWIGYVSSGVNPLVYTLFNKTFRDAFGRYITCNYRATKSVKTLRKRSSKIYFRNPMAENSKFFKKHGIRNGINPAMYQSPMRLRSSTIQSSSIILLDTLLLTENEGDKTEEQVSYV
Chain of Voltage-gated inwardly rectifying potassium channel KCNH2 (Q12809 whole entry): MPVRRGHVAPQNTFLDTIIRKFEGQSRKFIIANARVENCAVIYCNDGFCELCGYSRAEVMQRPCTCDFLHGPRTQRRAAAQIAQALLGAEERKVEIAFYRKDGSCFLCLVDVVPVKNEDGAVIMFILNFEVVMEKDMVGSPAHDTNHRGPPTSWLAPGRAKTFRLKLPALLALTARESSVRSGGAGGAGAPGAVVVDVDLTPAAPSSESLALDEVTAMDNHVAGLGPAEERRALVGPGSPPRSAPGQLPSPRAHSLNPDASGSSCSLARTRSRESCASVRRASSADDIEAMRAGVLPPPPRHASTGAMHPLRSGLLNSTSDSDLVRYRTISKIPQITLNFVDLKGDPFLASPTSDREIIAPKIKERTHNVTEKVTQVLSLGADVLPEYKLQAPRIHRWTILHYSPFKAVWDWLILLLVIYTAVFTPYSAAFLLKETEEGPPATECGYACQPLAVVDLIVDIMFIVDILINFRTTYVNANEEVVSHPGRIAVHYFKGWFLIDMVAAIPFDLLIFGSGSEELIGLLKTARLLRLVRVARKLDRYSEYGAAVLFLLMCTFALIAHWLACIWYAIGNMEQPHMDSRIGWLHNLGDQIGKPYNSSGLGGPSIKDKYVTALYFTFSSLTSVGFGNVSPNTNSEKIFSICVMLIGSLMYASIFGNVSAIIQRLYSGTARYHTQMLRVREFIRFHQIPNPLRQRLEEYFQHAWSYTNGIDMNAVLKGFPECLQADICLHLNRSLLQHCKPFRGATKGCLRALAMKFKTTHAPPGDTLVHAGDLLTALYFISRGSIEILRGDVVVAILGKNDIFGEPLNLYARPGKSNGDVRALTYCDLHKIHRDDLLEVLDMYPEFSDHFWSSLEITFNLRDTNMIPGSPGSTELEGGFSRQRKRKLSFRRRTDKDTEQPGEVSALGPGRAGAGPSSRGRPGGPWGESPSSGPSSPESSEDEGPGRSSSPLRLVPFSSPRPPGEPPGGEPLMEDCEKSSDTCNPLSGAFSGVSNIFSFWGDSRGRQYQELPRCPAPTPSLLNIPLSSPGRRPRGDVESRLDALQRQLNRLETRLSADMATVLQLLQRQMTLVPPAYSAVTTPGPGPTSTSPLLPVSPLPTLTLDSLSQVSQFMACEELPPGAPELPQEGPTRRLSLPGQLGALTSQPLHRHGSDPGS

Papp at 4 h [1]: 13.7 ×10⁻⁶ cm/s
solubility kinetic at 24 h [2]: 37 µM (≈ 14.7 µg/mL)
IC50 (Cytochrome P450 1A2): 0.18 µM
SMILES: CC(C)OC(=O)[C@@H](Cn1cncn1)OC(=O)Nc1c2c(cc3c1CCC3)CCC2

Papp at 4 h [1]: 8.2 ×10⁻⁶ cm/s
IC50 [3]: 4.3 µM
IC50 [4]: 2.7 µM
SMILES: CCOC(=O)[C@@H](Cc1ncccn1)NC(=O)Nc1c2c(cc3c1CCC3)CCC2

IC50 (Cytochrome P450 3A4 [5]): > 30 µM
Papp at 4 h [1]: 11.8 ×10⁻⁶ cm/s
IC50 (Cytochrome P450 2D6): > 30 µM
IC50 [3]: > 2 µM
IC50 [4]: > 2 µM
concentration at 5 min [8]: 479 ng/g
Kp at 5 min [9]: 0.79
IC50 (Cytochrome P450 3A4 [10]): > 30 µM
solubility kinetic at 24 h [2]: 28 µM (≈ 11.5 µg/mL)
concentration at 5 min [11]: 610 ng/mL
IC50 (Cytochrome P450 2C9): > 30 µM
IC50 (Cytochrome P450 1A2): > 30 µM
IC50 (Cytochrome P450 2C8): > 30 µM
inhibition (NLRC4 (Homo sapiens)): inactive
IC50 (Cytochrome P450 2B6): > 30 µM
IC50 (Cytochrome P450 2C19): > 30 µM
Activity [14]: 90%
SMILES: CC(C)OC(=O)[C@@H](Cc1ncccn1)OC(=O)Nc1c2c(cc3c1CCC3)CCC2 [NT-0796]
MEC (HepG2): > 40 µM
MEC [6]: > 40 µM
Activity [7]: Non-Toxic
IC50 [12]: > 30 µM
Activity [13]: Non-Toxic

IC50 [15]: > 20 µM
IC50 [16]: > 20 µM
SMILES: CCOC(=O)COC(=O)Nc1ccccc1OC(F)(F)F

IC50 [15]: 5.5 µM
IC50 [16]: 1.6 µM
SMILES: CCOC(=O)COC(=O)Nc1ccccc1C(C)C

Papp at 4 h [1]: 3.5 ×10⁻⁶ cm/s
solubility kinetic at 24 h [2]: < 1 µM
SMILES: O=C(Nc1c2c(cc3c1CCC3)CCC2)O[C@H](Cc1ncccn1)C(=O)OC1CCCC1

IC50 [15]: 3.9 µM
IC50 [16]: 0.59 µM
SMILES: CCOC(=O)COC(=O)Nc1c(C)cc(C)cc1C

IC50 (Cytochrome P450 3A4 [5]): > 30 µM
Papp at 4 h [1]: < 0.0002 ×10⁻⁶ cm/s
IC50 (Cytochrome P450 2D6): > 30 µM
concentration at 5 min [8]: 91.7 ng/g
Kp at 5 min [9]: 0.07
solubility kinetic at 24 h [2]: > 200 µM
concentration at 5 min [11]: 1160 ng/mL
IC50 (Cytochrome P450 2C9): > 30 µM
IC50 (Cytochrome P450 1A2): > 30 µM
IC50 [15]: 4.7 µM
IC50 [16]: 0.066 µM
IC50 (Cytochrome P450 2C19): > 30 µM
SMILES: O=C(Nc1c2c(cc3c1CCC3)CCC2)O[C@H](Cc1ncccn1)C(=O)O

IC50 [15]: 2.4 µM
IC50 [16]: 1.5 µM
SMILES: CCOC(=O)COC(=O)Nc1c(C)cccc1CC

IC50 [15]: 13 µM
IC50 [16]: 0.81 µM
SMILES: CCOC(=O)COC(=O)Nc1c(CC)cccc1CC

Papp at 4 h [1]: < 0.0003 ×10⁻⁶ cm/s
IC50 [3]: > 40 µM
IC50 [4]: > 40 µM
SMILES: CC(C)(O)c1coc(S(=O)(=O)NC(=O)Nc2c3c(cc4c2CCC4)CCC3)c1

Papp at 4 h [1]: 13.7 ×10⁻⁶ cm/s
solubility kinetic at 24 h [2]: 5.5 µM (≈ 2.25 µg/mL)
IC50 (Cytochrome P450 1A2): 1.1 µM
SMILES: CC(C)OC(=O)[C@@H](Cc1cnccn1)OC(=O)Nc1c2c(cc3c1CCC3)CCC2

IC50 [15]: 2.9 µM
IC50 [16]: 0.97 µM
SMILES: CCOC(=O)COC(=O)Nc1cc(C)ccc1C

IC50 [15]: 9.4 µM
IC50 [16]: 1.9 µM
SMILES: CCOC(=O)COC(=O)Nc1c(F)cccc1F

IC50 [15]: 9.2 µM
IC50 [16]: 1 µM
SMILES: CCOC(=O)COC(=O)Nc1c(Cl)cccc1Cl

IC50 [15]: 6.8 µM
IC50 [16]: 5.5 µM
SMILES: CCOC(=O)COC(=O)Nc1ccccc1C#N

IC50 [15]: > 20 µM
IC50 [16]: 10 µM
SMILES: CCOC(=O)COC(=O)Nc1c(C(C)C)cccc1C(C)C

IC50 [15]: > 40 µM
IC50 [16]: > 40 µM
SMILES: CCOC(=O)CNC(=O)Oc1c2c(cc3c1CCC3)CCC2

Papp at 4 h [1]: 5 ×10⁻⁶ cm/s
solubility kinetic at 24 h [2]: < 1 µM
IC50 (Cytochrome P450 2C19): 4.4 µM
SMILES: CC(C)OC(=O)[C@@H](Cn1cc(C#N)cn1)OC(=O)Nc1c2c(cc3c1CCC3)CCC2

IC50 [15]: > 40 µM
IC50 [16]: > 40 µM
SMILES: CCOC(=O)COC(=O)N(C)c1c2c(cc3c1CCC3)CCC2

IC50 [15]: > 20 µM
IC50 [16]: > 20 µM
SMILES: CCOC(=O)COC(=O)Nc1ccccc1C(F)(F)F

IC50 [15]: 1.1 µM
IC50 [16]: 0.93 µM
SMILES: CCOC(=O)COC(=O)Nc1c(C)cccc1C

IC50 [15]: > 40 µM
IC50 [16]: > 40 µM
SMILES: COC(=O)CN(C)C(=O)Nc1c2c(cc3c1CCC3)CCC2
